Results reported in patent US20210106566A1, “PHARMACEUTICAL COMPOSITION FOR TREATING AND/OR PREVENTING PERIPHERAL NEUROPATHY OR SPINAL CORD INJURY” (NATIONAL UNIVERSITY CORPORATION NAGOYA UNIVERSITY, priority 2015, published 2021).

Experiments:
Erk1/2 = assay: Western blot of Erk1/2 phosphorylation in primary motor neurons; type: cell-based, mouse; conditions: primary motor neurons, 0, 10, or 20 μmol/L, days 2 and 3
Protocol: Zonisamide (0, 10, or 20 μmol/L) was added to primary motor neurons 4 hours after the beginning of culture. The cells were rinsed with a buffer (50 mmol/L HEPES pH 7.0, 150 mmol/L NaCl, 1% glycerol, 1% TritonX-100, 1.5 mmol/L MgCl2, 1 mmol/L EGTA, 100 mmol/L NaF, 10 mmol/L sodium pyrophosphate, […], 1 mmol/L PMSF, and 1 mmol/L sodium orthovanadate (V)) at days 2 and 3. Total protein was dissolved in 1× Laemmli buffer, separated on a 10% SDS polyacrylamide gel, and transferred to a polyvinylidene fluoride membrane (Immobilon-P, Millipore). The membrane was washed with Tris-buffered physiological saline with 0.05% Tween 20 (TBS-T) and blocked with TBS-T containing 3% skim milk at room temperature for 1 hour. The membrane was incubated with any of anti-Erk1/2 (#4696, Cell Signaling), anti-phosphorylated Erk1/2 (#4370, Cell Signaling), or anti-phosphorylated JNK1/2/3 (#4668, Cell Signaling) antibody (diluted at 1:1000) at 4° C. overnight. The membrane was washed with TBS-T for 10 minutes three times and incubated with […] secondary antibody conjugated to horseradish peroxidase (HRP, GE Healthcare, 1:6000) at room temperature for 1 hour. The blot was detected with Amersham ECL Western blotting detection reagent (GE Healthcare) and quantified with ImageJ program (http://imagej.nih.gov/ij/index.html).

NSC34 cells = assay: Screening of neurite length in NSC34 cells; type: cell-based, mouse; conditions: dose dependency, FIG. 1
Protocol: The cells were seeded in DMEM/F12 differentiation medium (Invitrogen) supplemented with 1% FBS and […] doxycycline in a 96-well plate at 1.6×10^3 cells/cm^2 to induce the expression of GFP. […] Subsequently, cell nuclei were stained with Hoechst 33342 (1:100,000, Sigma Aldrich). Sixteen images per well were acquired on ArrayScan VTI HCS Reader (Thermo Scientific Cellomics). The average of neurite length in each well was automatically determined using Neuronal Profiling v4.0 BioApplication (Thermo Scientific Cellomics).

[1] = system: severely crushed spinal cord model mice; assay: Severely crushed spinal cord model mice: motor function with BMS score; type: in vivo, mouse; conditions: for BMS score: 30 mg/kg/day intragastrically
Text: Female C57BL/6J mice (8 weeks old; 19.5-22.0 g) were purchased from Charles River. The female C57BL/6J mice were anesthetized by intraperitoneally administering pentobarbital sodium and underwent back incision under a sterile condition to perform laminectomy at the 10th thoracic vertebra. The spinal cord was crushed at 100 kdyn using a tip with a diameter of 1.35 mm on IH Spinal Cord Impactor. After the occurrence of hematoma in the spinal cord was confirmed under a microscope, the wound was closed and 1 ml of physiological saline was subcutaneously injected into the posterior neck region to prevent dehydration. The mice with spinal cord injury were separated into two groups in a blinded fashion. Zonisamide was diluted with olive oil (solvent) to 3 mg/mL and intragastrically administered to mice in one group at 30 mg/kg/day using a disposable probe needle (flexible type, Fuchigami) for consecutive days from the day of surgery. Mice in the other group received only the solvent using a similar procedure for consecutive days. One day after surgery, motor function of mice in both groups was assessed using BMS score (Basso mouse scale; Li et. al. J Neurosurg Spine 4: 165-173 (2006)) in a blinded fashion to select the mice with BMS score of 1 or lower and consider them as severely crushed spinal cord model mice. The mice received 200 mL of water containing trimethoprim (16 mg)/sulfamethoxazole (80 mg) from a feeder to prevent infection for 3 days after surgery. BMS score is scored by rating ankle movement, weight support, stepping, coordinated motion of forelimbs and hindlimbs (coordination), hindlimb position in walking, trunk stability, and tail position, and ranges from 0 to 9; score 0 corresponds to complete paralysis of hindlimb and score 9 corresponds to normal motion; more specifically, BMS score is described as follows: 0: No ankle movement. 1: Slight ankle movement (less than 50% of the range of motion). 2: Extensive ankle movement (equal to and greater than 50% of the range of motion). 3: Plantar placing of the paw or occasional dorsal stepping. 4: Occasional planter stepping with weight support (equal to and less than 50% of forward movement). 5: Frequent or consistent planter stepping (equal to and greater than 50% of forward movement), no coordination of limbs; or frequent or consistent planter stepping, some coordination of limbs, hindlimb paws rotated at initial contact and lift off. 6: Some coordination of limbs, hindlimb paws parallel at initial contact and rotated at lift off; or mostly coordinated, hindlimb paws rotated at initial contact and lift off. […] BMS scores were measured at days 1, 3, 7, 14, 21, and 28 after surgery in a blinded fashion (FIG. 14).

## NS(=O)(=O)Cc1noc2ccccc12 [Zonisamide, 3-sulfamoylmethyl-1,2-benzisoxazole]
Erk1/2
  Erk1/2 phosphorylation: suppress
NSC34 cells
  axonal growth (average neurite length) in NSC34 cells: dose-dependent axonal growth
[1]; day 14 after surgery
  BMS score: 3.2±0.3
[1]; day 21 after surgery
  BMS score: 3.2±0.4
[1]; day 28 after surgery
  BMS score: 3.7±0.4
[1]; since day 14 after surgery
  BMS score compared to the control group: significantly higher
